pIC50: −log10 of the molar value. Where a name gives a salt, the structure may show the parent alone.
Tests used:
Assay in all cases: cells
[1] = test system: Calu-6; assay type: functional, cell-based, Homo sapiens; details: Homo sapiens, Calu-6;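 further: growth of human Calu-6 cells, read out by a cell viability assay, IC50 marking inhibition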
Description: SANGER: Inhibition of human Calu-6 cell growth in a cell viability assay.

[2] = test system: D-263MG; assay type: functional, cell-based, Homo sapiens; details: Homo sapiens, D-263MG
Description: SANGER: Inhibition of human D-263MG cell growth in a cell viability assay.

[3] = test system: DB; assay type: functional, cell-based, Homo sapiens; details: Homo sapiens, DB
Description: SANGER: Inhibition of human DB cell growth in a cell viability assay.

[4] = test system: DMS-79; assay type: functional, cell-based, Homo sapiens; details: Homo sapiens, DMS-79;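 further: growth inhibition measured with a cell viability assay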
Description: SANGER: Inhibition of human DMS-79 cell growth in a cell viability assay.

[5] = test system: DU-4475; assay type: functional, cell-based, Homo sapiens; details: Homo sapiens, DU-4475
Description: SANGER: Inhibition of human DU-4475 cell growth in a cell viability assay.

[6] = test system: EW-1; assay type: functional, cell-based, Homo sapiens; details: Homo sapiens, EW-1;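 further: growth inhibition of the human EW-1 cell line, read out by a cell viability assay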
Description: SANGER: Inhibition of human EW-1 cell growth in a cell viability assay.

[7] = test system: HCC2218; assay type: functional, cell-based, Homo sapiens; details: Homo sapiens, HCC2218;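 further: cell viability assay read-out, with IC50 given as the concentration that inhibits growth of the cell line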
Description: SANGER: Inhibition of human HCC2218 cell growth in a cell viability assay.

[8] = test system: HEL; assay type: functional, cell-based, Homo sapiens; details: Homo sapiens, HEL;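 further: growth inhibition of HEL cells, read out with a cell viability assay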
Description: SANGER: Inhibition of human HEL cell growth in a cell viability assay.

[9] = test system: HT; assay type: functional, cell-based, Homo sapiens; details: Homo sapiens, HT
Description: SANGER: Inhibition of human HT cell growth in a cell viability assay.

[10] = test system: HT-144; assay type: functional, cell-based, Homo sapiens; details: Homo sapiens, HT-144
Description: SANGER: Inhibition of human HT-144 cell growth in a cell viability assay.

[11] = test system: HuTu80; assay type: functional, cell-based, Homo sapiens, HUTU-80; details: Homo sapiens, HuTu80;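 further: growth inhibition of HuTu80 human cells, determined with a cell viability readout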
Description: SANGER: Inhibition of human HUTU-80 cell growth in a cell viability assay.

[12] = test system: JAR; assay type: functional, cell-based, Homo sapiens; details: Homo sapiens, JAR;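 further: growth inhibition of human JAR cells determined with a cell viability assay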
Description: SANGER: Inhibition of human JAR cell growth in a cell viability assay.

[13] = test system: KM12; assay type: functional, cell-based, Homo sapiens; details: Homo sapiens, KM12;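 further: KM12 cell growth inhibition, read out with a cell viability assay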
Description: SANGER: Inhibition of human KM12 cell growth in a cell viability assay.

[14] = test system: LB996-RCC; assay type: functional, cell-based, Homo sapiens; details: Homo sapiens, LB996-RCC
Description: SANGER: Inhibition of human LB996-RCC cell growth in a cell viability assay.

[15] = test system: LC-2-ad; assay type: functional, cell-based, Homo sapiens; details: Homo sapiens, LC-2-ad;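 further: growth inhibition of human LC-2-ad cells, read out with a cell viability assay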
Description: SANGER: Inhibition of human LC-2-ad cell growth in a cell viability assay.

[16] = test system: LNCaP-Clone-FGC; assay type: functional, cell-based, Homo sapiens; details: Homo sapiens, LNCaP-Clone-FGC
Description: SANGER: Inhibition of human LNCaP-Clone-FGC cell growth in a cell viability assay.

[17] = test system: MZ1-PC; assay type: functional, cell-based, Homo sapiens; details: Homo sapiens, MZ1-PC;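 further: cell viability assay measuring growth inhibition of human MZ1-PC cells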
Description: SANGER: Inhibition of human MZ1-PC cell growth in a cell viability assay.

[18] = test system: MZ7-mel; assay type: functional, cell-based, Homo sapiens; details: Homo sapiens, MZ7-mel;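 further: growth inhibition of human MZ7-mel cells, measured by a cell viability assay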
Description: SANGER: Inhibition of human MZ7-mel cell growth in a cell viability assay.

[19] = test system: NB10; assay type: functional, cell-based, Homo sapiens; details: Homo sapiens, NB10;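 further: growth inhibition of NB10 cells, read out by a cell viability assay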
Description: SANGER: Inhibition of human NB10 cell growth in a cell viability assay.

[20] = test system: NB5; assay type: functional, cell-based, Homo sapiens; details: Homo sapiens, NB5;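 further: growth inhibition of NB5 cells, read out as cell viability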
Description: SANGER: Inhibition of human NB5 cell growth in a cell viability assay.

[21] = test system: NCI-H1092; assay type: functional, cell-based, Homo sapiens; details: Homo sapiens, NCI-H1092;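 further: cell growth inhibition measured with a cell viability assay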
Description: SANGER: Inhibition of human NCI-H1092 cell growth in a cell viability assay.

[22] = test system: NCI-H2126; assay type: functional, cell-based, Homo sapiens; details: Homo sapiens, NCI-H2126;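 further: growth inhibition of the cancer cell line, determined with a cell viability readout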
Description: SANGER: Inhibition of human NCI-H2126 cell growth in a cell viability assay.

[23] = test system: NCI-H226; assay type: functional, cell-based, Homo sapiens; details: Homo sapiens, NCI-H226;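 further: cell viability read-out used to gauge growth inhibition of the cells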
Description: SANGER: Inhibition of human NCI-H226 cell growth in a cell viability assay.

[24] = test system: NCI-H446; assay type: functional, cell-based, Homo sapiens; details: Homo sapiens, NCI-H446;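 further: growth inhibition of NCI-H446 cells determined by a cell viability assay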
Description: SANGER: Inhibition of human NCI-H446 cell growth in a cell viability assay.

[25] = test system: NCI-H69; assay type: functional, cell-based, Homo sapiens; details: Homo sapiens, NCI-H69;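 further: growth inhibition of the cell line, read out with a cell viability assay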
Description: SANGER: Inhibition of human NCI-H69 cell growth in a cell viability assay.

[26] = test system: SNU-5; assay type: functional, cell-based, Homo sapiens; details: Homo sapiens, SNU-5;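 further: cell viability readout used to measure growth inhibition in human NCI-SNU-5 cells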
Description: SANGER: Inhibition of human NCI-SNU-5 cell growth in a cell viability assay.

[27] = test system: NH-12; assay type: functional, cell-based, Homo sapiens; details: Homo sapiens, NH-12;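 further: growth inhibition of NH-12 cells, read out with a cell viability assay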
Description: SANGER: Inhibition of human NH-12 cell growth in a cell viability assay.

[28] = test system: QIMR-WIL; assay type: functional, cell-based, Homo sapiens; details: Homo sapiens, QIMR-WIL;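 further: growth inhibition of QIMR-WIL cells, read out with a cell viability assay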
Description: SANGER: Inhibition of human QIMR-WIL cell growth in a cell viability assay.

[29] = test system: RS4-11; assay type: functional, cell-based, Homo sapiens; details: Homo sapiens, RS4-11;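 further: growth inhibition of RS4-11 cells, read out by a cell viability assay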
Description: SANGER: Inhibition of human RS4-11 cell growth in a cell viability assay.

[30] = test system: RXF 393; assay type: functional, cell-based, Homo sapiens; details: Homo sapiens, RXF 393;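 further: growth inhibition of human RXF 393 cells, read out with a cell viability assay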
Description: SANGER: Inhibition of human RXF393 cell growth in a cell viability assay.

[31] = test system: Ramos-2G6-4C10; assay type: functional, cell-based, Homo sapiens; details: Homo sapiens, Ramos-2G6-4C10;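 further: growth inhibition of the cell line, measured by a cell viability read-out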
Description: SANGER: Inhibition of human Ramos-2G6-4C10 cell growth in a cell viability assay.

[32] = test system: SCH; assay type: functional, cell-based, Homo sapiens; details: Homo sapiens, SCH;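 further: growth inhibition of human SCH cells, read out in a cell viability assay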
Description: SANGER: Inhibition of human SCH cell growth in a cell viability assay.

[33] = test system: SJSA-1; assay type: functional, cell-based, Homo sapiens; details: Homo sapiens, SJSA-1;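 further: growth inhibition of human SJSA-1 cells, read out through a cell viability measurement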
Description: SANGER: Inhibition of human SJSA-1 cell growth in a cell viability assay.

[34] = test system: SK-LMS-1; assay type: functional, cell-based, Homo sapiens; details: Homo sapiens, SK-LMS-1;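 further: growth inhibition of human SK-LMS-1 cells, read out with a cell viability assay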
Description: SANGER: Inhibition of human SK-LMS-1 cell growth in a cell viability assay.

[35] = test system: SK-MEL-2; assay type: functional, cell-based, Homo sapiens; details: Homo sapiens, SK-MEL-2;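 further: growth inhibition of human SK-MEL-2 cells measured with a cell viability assay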
Description: SANGER: Inhibition of human SK-MEL-2 cell growth in a cell viability assay.

[36] = test system: SK-PN-DW; assay type: functional, cell-based, Homo sapiens; details: Homo sapiens, SK-PN-DW;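 further: growth inhibition measured with a viability assay on these cells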
Description: SANGER: Inhibition of human SK-PN-DW cell growth in a cell viability assay.

[37] = test system: SW684; assay type: functional, cell-based, Homo sapiens; details: Homo sapiens, SW684;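 further: growth inhibition of human SW684 cells, measured by a cell viability assay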
Description: SANGER: Inhibition of human SW684 cell growth in a cell viability assay.

[38] = test system: A498; assay type: functional, cell-based, Homo sapiens; details: Homo sapiens, A498;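 further: growth inhibition of human A498 cells, read out with a cell viability assay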
Description: SANGER: Inhibition of human A498 cell growth in a cell viability assay.

[39] = test system: ACN; assay type: functional, cell-based, Homo sapiens; details: Homo sapiens, ACN;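 further: growth inhibition of the human ACN cell line, read out via cell viability testing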
Description: SANGER: Inhibition of human ACN cell growth in a cell viability assay.

[40] = test system: AM-38; assay type: functional, cell-based, Homo sapiens; details: Homo sapiens, AM-38;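 further: growth inhibition of AM-38 cells of human origin, read out by a cell viability assay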
Description: SANGER: Inhibition of human AM-38 cell growth in a cell viability assay.

[41] = test system: BT-474; assay type: functional, cell-based, Homo sapiens; details: Homo sapiens, BT-474
Description: SANGER: Inhibition of human BT-474 cell growth in a cell viability assay.

[42] = test system: Becker; assay type: functional, cell-based, Homo sapiens; details: Homo sapiens, Becker;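 further: growth inhibition of Becker cells, read out with a cell viability assay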
Description: SANGER: Inhibition of human Becker cell growth in a cell viability assay.

[43] = test system: C8166; assay type: functional, cell-based, Homo sapiens; details: Homo sapiens, C8166;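 further: growth inhibition of human C8166 cells measured by a cell viability assay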
Description: SANGER: Inhibition of human C8166 cell growth in a cell viability assay.

[44] = test system: TE-10; assay type: functional, cell-based, Homo sapiens; details: Homo sapiens, TE-10;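 further: growth inhibition of TE-10 cells, measured by a cell viability assay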
Description: SANGER: Inhibition of human TE-10 cell growth in a cell viability assay.

[45] = test system: TE-6; assay type: functional, cell-based, Homo sapiens; details: Homo sapiens, TE-6;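 further: growth inhibition of TE-6 cells, read out with a cell viability assay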
Description: SANGER: Inhibition of human TE-6 cell growth in a cell viability assay.

[46] = test system: TE-9; assay type: functional, cell-based, Homo sapiens; details: Homo sapiens, TE-9;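 further: cell growth inhibition, measured with a cell viability readout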
Description: SANGER: Inhibition of human TE-9 cell growth in a cell viability assay.

[47] = test system: U-87 MG; assay type: functional, cell-based, Homo sapiens, U-87MG ATCC; details: Homo sapiens, U-87 MG;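 further: growth inhibition of the cells measured with a viability assay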
Description: SANGER: Inhibition of human U-87-MG cell growth in a cell viability assay.

[48] = test system: UACC-257; assay type: functional, cell-based, Homo sapiens; details: Homo sapiens, UACC-257
Description: SANGER: Inhibition of human UACC-257 cell growth in a cell viability assay.

## CCC/C=C/C=C/C(=O)O[C@H]1/C(=C/C(=O)OC)C[C@H]2C[C@H]([C@@H](C)O)OC(=O)C[C@H](O)C[C@@H]3C[C@H](OC(C)=O)C(C)(C)[C@](O)(C[C@@H]4C/C(=C/C(=O)OC)C[C@H](/C=C/C(C)(C)[C@]1(O)O2)O4)O3 [BRYOSTATIN 1]
[1]
  pIC50: < 8.10
[2]
  pIC50: < 8.10
[3]
  pIC50: < 8.10
[4]
  pIC50: < 8.10
[5]
  pIC50: < 8.10
[6]
  pIC50: < 8.10
[7]
  pIC50: < 8.10
[8]
  pIC50: < 8.10
[9]
  pIC50: < 8.10
[10]
  pIC50: < 8.10
[11]
  pIC50: < 8.10
[12]
  pIC50: < 8.10
[13]
  pIC50: < 8.10
[14]
  pIC50: < 8.10
[15]
  pIC50: < 8.10
[16]
  pIC50: < 8.10
[17]
  pIC50: < 8.10
[18]
  pIC50: < 8.10
[19]
  pIC50: < 8.10
[20]
  pIC50: < 8.10
[21]
  pIC50: < 8.10
[22]
  pIC50: < 8.10
[23]
  pIC50: < 8.10
[24]
  pIC50: < 8.10
[25]
  pIC50: < 8.10
[26]
  pIC50: < 8.10
[27]
  pIC50: < 8.10
[28]
  pIC50: < 8.10
[29]
  pIC50: < 8.10
[30]
  pIC50: < 8.10
[31]
  pIC50: < 8.10
[32]
  pIC50: < 8.10
[33]
  pIC50: < 8.10
[34]
  pIC50: < 8.10
[35]
  pIC50: < 8.10
[36]
  pIC50: < 8.10
[37]
  pIC50: < 8.10
[38]
  pIC50: < 8.10
[39]
  pIC50: < 8.10
[40]
  pIC50: < 8.10
[41]
  pIC50: < 8.10
[42]
  pIC50: < 8.10
[43]
  pIC50: < 8.10
[44]
  pIC50: < 8.10
[45]
  pIC50: < 8.10
[46]
  pIC50: < 8.10
[47]
  pIC50: < 8.10
[48]
  pIC50: < 8.10

## COC1=CC(c2cc3ccccc3[nH]2)=N/C1=C\c1[nH]c(C)cc1C [OBATOCLAX MESYLATE]
[1]
  pIC50: 7.04
[2]
  pIC50: 5.50
[3]
  pIC50: 6.63
[4]
  pIC50: < 4.80
[5]
  pIC50: 6.79
[6]
  pIC50: > 7.20
[7]
  pIC50: 5.62
[8]
  pIC50: 6.81
[9]
  pIC50: 6.59
[10]
  pIC50: > 7.20
[11]
  pIC50: 6.98
[12]
  pIC50: < 4.80
[13]
  pIC50: 6.50
[14]
  pIC50: 6.33
[15]
  pIC50: 7.80
[16]
  pIC50: 5.64
[17]
  pIC50: 6.97
[18]
  pIC50: > 7.20
[19]
  pIC50: 5.55
[20]
  pIC50: 5.85
[21]
  pIC50: 5.51
[22]
  pIC50: 5.65
[23]
  pIC50: 7.18
[24]
  pIC50: 6.02
[25]
  pIC50: 5.33
[26]
  pIC50: 6.07
[27]
  pIC50: 6.27
[28]
  pIC50: 6.88
[29]
  pIC50: 7.07
[30]
  pIC50: 5.75
[31]
  pIC50: 6.89
[32]
  pIC50: < 4.80
[33]
  pIC50: 6.83
[34]
  pIC50: 6.50
[35]
  pIC50: 6.80
[36]
  pIC50: 7.24
[37]
  pIC50: < 4.80
[38]
  pIC50: < 4.80
[39]
  pIC50: > 7.20
[40]
  pIC50: 6.72
[41]
  pIC50: 6.76
[42]
  pIC50: 5.78
[43]
  pIC50: 6.32
[44]
  pIC50: 7.02
[45]
  pIC50: 5.98
[46]
  pIC50: 6.63
[47]
  pIC50: 5.64
[48]
  pIC50: 6.23
